Here are results for one compound from patent publication US20160235781A1, “DIURETIC INDUCED ALTERATIONS OF PLASMA VOLUME” (MAST THERAPEUTICS, INC., priority 2013, published 2016).

This assay can be described thus: Example 2: diuretic induced hemo-concentration patient, transthoracic echocardiography and body weight. The format is in vivo, human. The procedure:
A person weighing 180 pounds, with a history of a prior myocardial infarction, was hospitalized with fatigue, peripheral edema and difficulty in breathing. […] Diuretic therapy effected by administering IV bolus doses of 150 mg furosemide every 12 hours was started. Their body weight measurement after 48 hours of furosemide treatment was 172 pounds.
The patient was continued on furosemide and a 15% solution of purified poloxamer 188 in citrate buffered saline was administered at a dose of 250 mg/kg as an IV infusion over a period of 1 hour. Twenty-four hours later, their body weight was 168 pounds.

SMILES strings stand for the structures.

Compound `NS(=O)(=O)c1cc(C(=O)O)c(NCc2ccco2)cc1Cl` [furosemide] had a body weight (after 48 hours of furosemide 150 mg IV bolus every 12 hours, 180 pounds at admission) of 172 pounds. The ejection fraction (after 48 hours of furosemide alone, 30% at admission) stood at 29%.
